Data taken from the NIST ThermoML archive (doi:10.1016/j.fluid.2015.03.012).

Assay: mn = molality of the nth substance listed, in mol/kg
Conditions: Survismeter

C[C@H](CCC(=O)[O-])[C@H]1CC[C@H]2[C@@H]3[C@H](O)C[C@@H]4C[C@H](O)CC[C@]4(C)[C@H]3C[C@H](O)[C@]12C.[Na+] [sodium cholate] + O
surface tension liquid-gas [mN/m]
Conditions | 293.15 K | 298.15 K | 303.15 K | 308.15 K | 313.15 K | 318.15 K
m1 = 0.001 | 63.15 | 62.55 | 61.55 | 61.35 | 60 | 59.45
m1 = 0.002 | 61.61 | 61.03 | 60.07 | 59.88 | 58.96 | 58.1
m1 = 0.003 | 60.5 | 59.94 | 59.01 | 58.83 | 57.95 | 57.45
m1 = 0.004 | 59.43 | 58.89 | 58.33 | 57.82 | 56.98 | 56.5
m1 = 0.006 | 57.08 | 56.89 | 56.04 | 55.58 | 55.14 | 54.69
m1 = 0.008 | 55.21 | 55.03 | 54.52 | 54.09 | 53.41 | 52.99
m1 = 0.01 | 54.04 | 53.57 | 53.09 | 52.68 | 52.05 | 51.65
m1 = 0.014 | 51.04 | 50.87 | 50.43 | 50.32 | 50.26 | 49.42
m1 = 0.018 | 50.55 | 50.64 | 50.2 | 49.59 | 49.07 | 48.73
m1 = 0.022 | 50.83 | 50.4 | 50.22 | 49.61 | 49.09 | 48.75
m1 = 0.026 | 50.59 | 50.17 | 49.99 | 49.63 | 49.11 | 48.77
m1 = 0.03 | 50.62 | 50.2 | 50.26 | 49.9 | 49.37 | 48.56

C[C@H](CCC(=O)[O-])[C@H]1CC[C@H]2[C@@H]3CC[C@@H]4C[C@H](O)CC[C@]4(C)[C@H]3C[C@H](O)[C@]12C.[Na+] [sodium deoxycholate] + O
surface tension liquid-gas [mN/m]
Conditions | 293.15 K | 298.15 K | 303.15 K | 308.15 K | 313.15 K | 318.15 K
m1 = 0.001 | 58.04 | 55.92 | 54.2 | 54.06 | 54.23 | 54.09
m1 = 0.002 | 55.17 | 53.25 | 51.68 | 51.56 | 51.75 | 51.62
m1 = 0.003 | 53.42 | 51.34 | 49.87 | 49.77 | 50.21 | 50.1
m1 = 0.004 | 50.47 | 48.6 | 47.5 | 47.19 | 47.62 | 48.2
m1 = 0.005 | 48.29 | 46.35 | 46.18 | 45.89 | 46.32 | 46.44
m1 = 0.006 | 46.29 | 45.1 | 45.13 | 44.86 | 45.29 | 45.21
m1 = 0.007 | 45.25 | 44.7 | 44.53 | 44.27 | 44.69 | 44.42
m1 = 0.009 | 44.86 | 44.51 | 44.34 | 43.89 | 44.11 | 44.04
m1 = 0.011 | 44.66 | 44.32 | 44.16 | 44.09 | 44.31 | 44.24
m1 = 0.013 | 44.87 | 44.53 | 44.16 | 43.9 | 44.32 | 44.24
m1 = 0.015 | 45.08 | 44.73 | 44.17 | 44.1 | 44.14 | 44.06
m1 = 0.017 | 44.89 | 44.54 | 44.18 | 44.3 | 44.14 | 44.26
